These results are taken from article PMC3182149 (Phytochemistry letters, 2011).

Assay [1] concerns Lu1 human lung cancer cells. The experiment in a line: Cytotoxicity assay, Lu1 human lung cancer cells. It is filed as cell-based.
Assay [2] concerns MCF-7 human breast cancer cells. The experiment in a line: Cytotoxicity assay, MCF-7 human breast cancer cell line. It is filed as cell-based.
Assay [3] relates to LNCaP hormone-dependent prostate cancer cells. The experiment in a line: Cytotoxicity assay, LNCaP hormone-dependent prostate cancer cells. The assay is classed as cell-based, human.
Assay [4] has as its system panel of three human cancer cells. Briefly: Cytotoxicity assay, panel of three human cancer cells. To be noted: range over the panel of three human cancer cells. The assay is classed as cell-based.
In another assay the target is NF-κB p65 (Homo sapiens, UniProt Q04206). Briefly: Enzyme-based ELISA NF-κB p65 assay. The assay is classed as biochemical. The note with it: inhibition of binding of NF-κB to DNA; Hela nuclear extract. (An ELISA detects its analyte on a solid surface through an enzyme-linked reagent.)
Chain of NF-κB p65 (Q04206 whole entry): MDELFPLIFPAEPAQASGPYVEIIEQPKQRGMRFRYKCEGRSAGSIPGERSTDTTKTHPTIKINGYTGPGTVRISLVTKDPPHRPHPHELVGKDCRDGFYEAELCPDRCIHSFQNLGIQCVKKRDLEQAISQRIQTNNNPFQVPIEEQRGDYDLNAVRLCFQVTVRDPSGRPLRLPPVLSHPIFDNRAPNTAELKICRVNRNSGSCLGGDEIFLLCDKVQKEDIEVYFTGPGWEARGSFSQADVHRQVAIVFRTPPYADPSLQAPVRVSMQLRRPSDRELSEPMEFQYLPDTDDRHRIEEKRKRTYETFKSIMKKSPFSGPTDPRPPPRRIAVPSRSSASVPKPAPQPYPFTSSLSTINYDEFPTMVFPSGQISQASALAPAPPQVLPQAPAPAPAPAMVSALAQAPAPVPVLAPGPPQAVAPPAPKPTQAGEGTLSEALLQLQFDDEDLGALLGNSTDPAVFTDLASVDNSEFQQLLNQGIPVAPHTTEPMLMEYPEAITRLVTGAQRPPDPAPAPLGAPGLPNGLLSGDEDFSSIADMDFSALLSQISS
Chain of NF-κB p65 (P19838 1-433 partner limits assumed): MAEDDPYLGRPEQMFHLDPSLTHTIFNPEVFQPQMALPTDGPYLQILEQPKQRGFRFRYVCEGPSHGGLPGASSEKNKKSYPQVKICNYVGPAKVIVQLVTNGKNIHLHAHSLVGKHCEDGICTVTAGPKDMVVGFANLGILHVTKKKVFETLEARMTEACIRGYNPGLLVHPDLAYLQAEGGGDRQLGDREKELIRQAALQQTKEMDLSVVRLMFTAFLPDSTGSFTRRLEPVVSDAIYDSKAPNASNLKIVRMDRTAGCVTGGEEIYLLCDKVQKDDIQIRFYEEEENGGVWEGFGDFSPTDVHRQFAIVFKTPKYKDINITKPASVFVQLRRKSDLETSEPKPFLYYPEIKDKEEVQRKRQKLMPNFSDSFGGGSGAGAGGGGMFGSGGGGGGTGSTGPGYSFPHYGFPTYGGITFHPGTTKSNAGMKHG

With `COc1ccc([C@@H]2CC(=O)c3c(O)cc(OC)cc3O2)cc1` [Compound 3, (S)-5-hydroxy-7,4′-dimethoxyflavanone], the ED50 in assay [1] came to 4.7 µM; in assay [2] it was 1.1 µM; in assay [3], 6.7 µM. In assay [4], this compound displayed an ED50 values of 1.1 to 6.7 µM.

Turning to “methyl 3,4,5-O-tricaffeoyl quinate [Compound 4]”, on NF-κB p65, the ED50 came to 10.3 µM.
